Measurements as given in patent US12398154B2, “Azaquinazoline pan-KRas inhibitors” (Mirati Therapeutics, Inc., priority 2020, dated 2025).

What was measured:
pERK in H727 cells = assay: Inhibition of KRas phosphorylation of ERK (Cisbio HTRF pERK assay); conditions: Homo sapiens, NCI-H727, read-out: Inhibition (HTRF IC50) of KRas-mediated Phosphorylation of ERK, H727
KRas G12D = KRas G12D (Homo sapiens, UniProt P01116, G12D); assay: biochemical;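 note: TR-FRET displacement binding assay on KRas, read after a one-hour incubation at room temperature, IC50 fitted from percent-of-control values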
KRas G12D, sequence (P01116 1-169 isoform P01116-2 G12D): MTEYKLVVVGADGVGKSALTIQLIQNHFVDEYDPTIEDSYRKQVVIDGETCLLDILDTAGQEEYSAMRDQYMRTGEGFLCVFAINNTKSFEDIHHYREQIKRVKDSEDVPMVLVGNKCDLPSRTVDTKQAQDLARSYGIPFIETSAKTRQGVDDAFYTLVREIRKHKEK
Experimental: (§1) The ability of a compound to bind to KRas was measured using a TR-FRET displacement assay. […] After a 60-minute incubation at room temperature, the reaction was measured using a BMG LABTECH CLARIO star Plus via TR-FRET. […] The POC values were fit to a 4-parameter IC50 equation and the IC50 value reported.

pERK in ASPC1 cells = assay: Inhibition of KRas phosphorylation of ERK (Cisbio HTRF pERK assay); conditions: Homo sapiens, ASPC1, read-out: Inhibition (HTRF IC50) of KRas-mediated Phosphorylation of ERK, AsPC-1
Experimental: (§2) To harvest cells from flask using 0.05% Trypsin/EDTA solution. Add 10 mL of media to stop trypsinizing. Pipette the cells into a conical bottom 50 mL centrifuge tube and centrifuge 5 min×1000 rpm. • 2. Re-suspend the cell pellet in media, take a cell count, and then adjust the cell density using fresh media. • 3. Seed 6,000 cells into cell culture plate with 50 μL media. […] Incubate cell plate overnight in a 37° C., 5% CO2 incubator. • Compound titrations • 1. Use Tecan to complete the compound addition. Compounds start from 10 uM top, 3-fold dilution, and 10 doses. The final DMSO concentration is 0.8%. Dispensed 0.2 uM Trametinib as Min control. • 2. Incubate cell plate for 3 hrs in the incubator. • Detection with cisbio pERK HTRF kit • 1. […] At the end of the compound treatment, flick-off the media. • 3. Add 35 μL of lysis buffer per well using a Multidrop Combi. Then place on a plate agitator shaking at 300 rpm at 4° C. for 40 mins. • 4. Make up the HTRF antibody buffer. For each assay plate, mix 50 μL of d2-conjugate antibody with 950 μL of detection buffer. Similarly, mix 50 μL of Cryptate antibody with 950 μL of detection buffer. Then mix the two diluted antibodies together. • 5. Dispense 3.4 μL the antibody buffer to wells of an empty assay plate. Seal the plate and centrifuge plate 30 sec×1000 rpm. • 6. At the end of the 4° C. lysis, centrifuge the lysate plates 3 mins×1500 rpm. • 7. Use the Bravo to transfer 13.6 μL of lysate from cell culture plate to assay plate.
(§3) Then incubate assay plate for 2 hrs at room temperature. […] At the end of incubation, read plate on the Envision after centrifuging plate 30 sec× • 1000 rpm.

pERK in PSN1 cells = assay: as above; conditions: Homo sapiens, PSN1, 3 h, read-out: Inhibition (HTRF IC50) of KRas-mediated Phosphorylation of ERK, PSN1
pERK in MKN1 cells = assay: as above; conditions: Homo sapiens, MKN-1, 3 h, read-out: Inhibition (HTRF IC50) of KRas-mediated Phosphorylation of ERK, MKN1
pERK in A549 cells = assay: as above; conditions: Homo sapiens, A549, read-out: Inhibition (HTRF IC50) of KRas-mediated Phosphorylation of ERK, A549
Experimental: as §2, §3

KRas G12R = KRas G12R (Homo sapiens, UniProt P01116, G12R); assay: biochemical;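 note: TR-FRET displacement assay of compound binding to KRas, read after one hour at room temperature, potency from a four-parameter fit of percent-of-control values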
KRas G12R, sequence (P01116 1-169 isoform P01116-2 G12R): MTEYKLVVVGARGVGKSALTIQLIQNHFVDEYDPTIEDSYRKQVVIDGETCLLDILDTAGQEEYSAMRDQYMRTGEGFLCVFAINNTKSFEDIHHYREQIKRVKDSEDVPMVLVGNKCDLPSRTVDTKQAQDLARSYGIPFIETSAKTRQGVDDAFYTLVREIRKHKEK
Experimental: as §1

pERK in H460 cells = assay: Inhibition of KRas phosphorylation of ERK (Cisbio HTRF pERK assay); conditions: Homo sapiens, NCI-H460, read-out: Inhibition (HTRF IC50) of KRas-mediated Phosphorylation of ERK, H460
pERK in HCT116 cells = assay: as above; conditions: Homo sapiens, HCT-116, read-out: Inhibition (HTRF IC50) of KRas-mediated Phosphorylation of ERK, HCT116
KRas G12V = KRas G12V (Homo sapiens, UniProt P01116, G12V); assay: biochemical;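 note: KRas binding measured by TR-FRET displacement at room temperature, IC50 fitted from percent of control values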
KRas G12V, sequence (P01116 1-169 isoform P01116-2 G12V): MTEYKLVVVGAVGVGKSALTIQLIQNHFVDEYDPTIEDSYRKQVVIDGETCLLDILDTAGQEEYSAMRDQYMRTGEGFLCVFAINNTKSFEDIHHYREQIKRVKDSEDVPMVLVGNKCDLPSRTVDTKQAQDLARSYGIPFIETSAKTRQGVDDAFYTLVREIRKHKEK
Experimental: as §1

pERK in H358 cells = assay: Inhibition of KRas phosphorylation of ERK (Cisbio HTRF pERK assay); conditions: Homo sapiens, NCI-H358, read-out: Inhibition (HTRF IC50) of KRas-mediated Phosphorylation of ERK, H358
Experimental: as §2, §3

Compound	IC50 (pERK in H727 cells)	IC50 (KRas G12D)	IC50 (pERK in ASPC1 cells)	IC50 (pERK in PSN1 cells)	IC50 (pERK in MKN1 cells)	IC50 (pERK in A549 cells)	IC50 (KRas G12R)	IC50 (pERK in H460 cells)	IC50 (pERK in HCT116 cells)	IC50 (KRas G12V)	IC50 (pERK in H358 cells)
CCc1c(F)ccc2cc(O)cc(-c3ncc4c(N5CCCC6(CSC6)C5)nc(OC[C@@]56CCCN5C[C@H](F)C6)nc4c3F)c12 [Example 365, 5-ethyl-6-fluoro-4-(8-fluoro-2-(((2R,7aS)-2-fluorohexahydro-1H-pyrrolizin-7a-yl)methoxy)-4-(2-thia-6-azaspiro[3.5]nonan-6-yl)pyrido[4,3-d]pyrimidin-7-yl)naphthalen-2-ol]	0.024 µM	≤ 0.002 µM	0.017 µM	2.86 µM	0.01 µM	0.011 µM	≤ 0.002 µM	0.017 µM	0.077 µM	≤ 0.002 µM	0.006 µM
C#Cc1c(F)ccc2cc(O)cc(-c3ncc4c(N5CCCC6(CC(O)C6)C5)nc(OC[C@@]56CCCN5C[C@H](F)C6)nc4c3F)c12 (stereo partly drawn) [Example 393, 6-(7-(8-ethynyl-7-fluoro-3-hydroxynaphthalen-1-yl)-8-fluoro-2-(((2R,7aS)-2-fluorohexahydro-1H-pyrrolizin-7a-yl)methoxy)pyrido[4,3-d]pyrimidin-4-yl)-6-azaspiro[3.5]nonan-2-ol]	0.024 µM	≤ 0.002 µM	0.068 µM	0.449 µM	0.008 µM	0.133 µM	≤ 0.002 µM	0.11 µM	0.068 µM	≤ 0.002 µM	0.02 µM
C#Cc1c(F)ccc2cc(O)cc(-c3ncc4c(N5CCCn6nc(C(=O)N(C)C)cc6C5)nc(OC[C@@]56CCCN5C[C@H](F)C6)nc4c3F)c12 [Example 398, 5-(7-(8-ethynyl-7-fluoro-3-hydroxynaphthalen-1-yl)-8-fluoro-2-(((2R,7aS)-2-fluorohexahydro-1H-pyrrolizin-7a-yl)methoxy)pyrido[4,3-d]pyrimidin-4-yl)-N,N-dimethyl-5,6,7,8-tetrahydro-4H-pyrazolo[1,5-a][1,4]diazepine-2-carboxamide]	0.026 µM	≤ 0.002 µM	0.025 µM	6.69 µM	0.007 µM	0.102 µM	≤ 0.002 µM	0.387 µM	0.348 µM	≤ 0.002 µM	0.01 µM
C[C@@]1(O)CCCN(c2nc(OC[C@@]34CCCN3C[C@H](F)C4)nc3c(F)c(-c4cc(O)cc5ccc(F)c(Br)c45)ncc23)C1 [Example 399, (R)-1-(7-(8-bromo-7-fluoro-3-hydroxynaphthalen-1-yl)-8-fluoro-2-(((2R,7aS)-2-fluorohexahydro-1H-pyrrolizin-7a-yl)methoxy)pyrido[4,3-d]pyrimidin-4-yl)-3-methylpiperidin-3-ol]	0.016 µM	≤ 0.002 µM	0.003 µM	0.357 µM	0.001 µM	0.014 µM	≤ 0.002 µM	0.018 µM	0.023 µM	≤ 0.002 µM	0.004 µM
CC1(O)COCCN(c2nc(OC[C@@]34CCCN3C[C@H](F)C4)nc3c(F)c(-c4cc(O)cc5ccc(F)c(Br)c45)ncc23)C1 (stereo partly drawn) [Example 400, 4-(7-(8-bromo-7-fluoro-3-hydroxynaphthalen-1-yl)-8-fluoro-2-(((2R,7aS)-2-fluorohexahydro-1H-pyrrolizin-7a-yl)methoxy)pyrido[4,3-d]pyrimidin-4-yl)-6-methyl-1,4-oxazepan-6-ol]	0.087 µM	≤ 0.002 µM	0.027 µM	3.54 µM	0.007 µM	0.062 µM	≤ 0.002 µM	0.041 µM	0.113 µM	≤ 0.002 µM	0.009 µM
Oc1cc(-c2ncc3c(N4CC5CC(O)C(C5)C4)nc(OC[C@@]45CCCN4C[C@H](F)C5)nc3c2F)c2c(Br)c(F)ccc2c1 (stereo partly drawn) [Example 402, 3-(7-(8-bromo-7-fluoro-3-hydroxynaphthalen-1-yl)-8-fluoro-2-(((2R,7aS)-2-fluorohexahydro-1H-pyrrolizin-7a-yl)methoxy)pyrido[4,3-d]pyrimidin-4-yl)-3-azabicyclo[3.2.1]octan-6-ol]	0.014 µM	≤ 0.002 µM	0.012 µM	0.514 µM	0.003 µM	0.034 µM	≤ 0.002 µM	0.051 µM	0.046 µM	≤ 0.002 µM	0.004 µM
Oc1cc(-c2ncc3c(N4CCCC5(CC(O)C5)C4)nc(OC[C@@]45CCCN4C[C@H](F)C5)nc3c2F)c2c(Br)c(F)ccc2c1 (stereo partly drawn) [Example 407, 6-(7-(8-bromo-7-fluoro-3-hydroxynaphthalen-1-yl)-8-fluoro-2-(((2R,7aS)-2-fluorohexahydro-1H-pyrrolizin-7a-yl)methoxy)pyrido[4,3-d]pyrimidin-4-yl)-6-azaspiro[3.5]nonan-2-ol]	0.015 µM	≤ 0.002 µM	0.027 µM	1.33 µM	0.015 µM	0.027 µM	≤ 0.002 µM	0.026 µM	0.041 µM	≤ 0.002 µM	0.003 µM
CN(C)C(=O)c1cc2n(n1)CCCN(c1nc(OC[C@@]34CCCN3C[C@H](F)C4)nc3c(F)c(-c4cc(O)cc5ccc(F)c(Br)c45)ncc13)C2 [Example 412, 5-(7-(8-bromo-7-fluoro-3-hydroxynaphthalen-1-yl)-8-fluoro-2-(((2R,7aS)-2-fluorohexahydro-1H-pyrrolizin-7a-yl)methoxy)pyrido[4,3-d]pyrimidin-4-yl)-N,N-dimethyl-5,6,7,8-tetrahydro-4H-pyrazolo[1,5-a][1,4]diazepine-2-carboxamide]	0.051 µM	≤ 0.002 µM	0.019 µM	5.98 µM	0.034 µM	0.242 µM	≤ 0.002 µM	0.413 µM	0.586 µM	≤ 0.002 µM	0.011 µM
C[C@@]1(O)CCCN(c2nc(OC[C@@]34CCCN3C[C@H](F)C4)nc3c(F)c(-c4cc(O)cc5ccc(F)c(Cl)c45)ncc23)C1 [Example 418, (R)-1-(7-(8-chloro-7-fluoro-3-hydroxynaphthalen-1-yl)-8-fluoro-2-(((2R,7aS)-2-fluorohexahydro-1H-pyrrolizin-7a-yl)methoxy)pyrido[4,3-d]pyrimidin-4-yl)-3-methylpiperidin-3-ol]	0.032 µM	≤ 0.002 µM	0.025 µM	0.596 µM	0.003 µM	0.074 µM	0.003 µM	0.052 µM	0.06 µM	≤ 0.002 µM	0.011 µM
Oc1cc(-c2ncc3c(N4CC5CC(O)C(C5)C4)nc(OC[C@@]45CCCN4C[C@H](F)C5)nc3c2F)c2c(Cl)c(F)ccc2c1 (stereo partly drawn) [Example 421, 3-(7-(8-chloro-7-fluoro-3-hydroxynaphthalen-1-yl)-8-fluoro-2-(((2R,7aS)-2-fluorotetrahydro-1H-pyrrolizin-7a(5H)-yl)methoxy)pyrido[4,3-d]pyrimidin-4-yl)-3-azabicyclo[3,2,1]octan-6-ol]	0.026 µM	0.003 µM	0.061 µM	1.5 µM	0.004 µM	0.039 µM	≤ 0.002 µM	0.073 µM	0.07 µM	≤ 0.002 µM	0.016 µM
